Data: PubChem BioAssay (NCI)
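The compound was tested at five concentrations on cells cultured in 96-well plates, with a 48-hour exposure period. GI50 marks 50% less growth. TGI denotes the concentration required for complete inhibition of growth.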

Experiments:
Test in all cases: DTP human tumour cell line panel, 48 h
SW-620 colon = test system: SW-620 colon
A549 NSCLC = test system: A549 NSCLC
CAKI-1 renal = test system: CAKI-1 renal
SN12C renal = test system: SN12C renal
NCI-H460 lung = test system: NCI-H460 lung
UO-31 renal = test system: UO-31 renal
HCT-15 colon = test system: HCT-15 colon
T-47D breast = test system: T-47D breast
HL-60(TB) leukemia = test system: HL-60(TB) leukemia
UACC-257 melanoma = test system: UACC-257 melanoma

Compound | GI50 (SW-620 colon) [µM] | TGI (SW-620 colon) [µM] | GI50 (A549 NSCLC) [µM] | TGI (A549 NSCLC) [µM] | GI50 (CAKI-1 renal) [µM] | TGI (CAKI-1 renal) [µM] | GI50 (SN12C renal) [µM] | TGI (SN12C renal) [µM] | GI50 (NCI-H460 lung) [µM] | TGI (NCI-H460 lung) [µM] | GI50 (UO-31 renal) [µM] | TGI (UO-31 renal) [µM] | GI50 (HCT-15 colon) [µM] | TGI (HCT-15 colon) [µM] | GI50 (T-47D breast) [µM] | TGI (T-47D breast) [µM] | GI50 (HL-60(TB) leukemia) [µM] | TGI (HL-60(TB) leukemia) [µM] | GI50 (UACC-257 melanoma) [µM] | TGI (UACC-257 melanoma) [µM]
CCN(CC)c1ccc(N=C2C=C(C(=O)Nc3ccc(S(C)(=O)=O)cc3)C(=O)c3ccccc32)c(C)c1 | > 100 | > 100 | 49.6 | > 100 | 81 | > 100 | > 100 | > 100 | 35 | > 100 | 67.5 | > 100 | 5.28 | > 100 | 51.9 | > 100 | 14 | > 100 | > 100 | > 100
CCN(CC)CCOc1ccc(Nc2ncc3cc(-c4c(Cl)cccc4Cl)c(=O)n(CCOC)c3n2)cc1 | 1.2 | 5.86 | 0.498 | 4.18 | 0.0149 | 0.174 | 0.0237 | 5.37 | 0.562 | 4.77 | 0.012 | 0.179 | 0.128 | 6.1 | 0.133 | 16.5 | 0.496 | 2.06 | 0.881 | 4.58
COc1ccc(Nc2ccnc(NCCNc3ccnc4cc(Cl)ccc34)n2)cc1 | 1.6 | 10.2 | 3.67 | 13.7 | 1.73 | 4.57 | 3.73 | 18.4 | 2.36 | 12.8 | 1.5 | 3.7 | 1.23 | 4.03 | 1.61 | 5.72 | 2.48 | 7.06 | 1.97 | 4.25
CCOCC(=O)N[C@H]1CCc2cc(OC)c(OC)c(OC)c2-c2ccc(SC)c(=O)cc21 | – | > 100 | – | > 100 | – | > 45.8 | – | > 100 | – | 0.398 | – | > 100 | – | > 18.1 | – | > 100 | – | < 0.0347 | – | > 100
CN(C)C(=S)NN=C(c1ccccn1)c1ccccn1 | < 0.0115 | > 40.2 | 0.101 | > 42.8 | < 0.0127 | 6.59 | 0.0971 | 33.4 | < 0.025 | – | < 0.0184 | 14.1 | < 0.012 | 25.5 | – | > 44.9 | < 0.0479 | – | < 0.012 | 2.51
COc1ccc(-c2nsc3c2NC(=O)CC3c2ccc3c(c2)OCO3)cc1 (configuration not stated) | 0.514 | > 100 | 0.841 | > 100 | 0.852 | > 100 | 2.55 | > 100 | 0.498 | > 100 | 5.09 | > 100 | 0.493 | > 100 | 0.724 | > 100 | 0.579 | 8.32 | 10.8 | > 100
